Legend:
[1] = tested on: F3; test: Stemness marker expression (qPCR, western blot); format: cell-based; conditions: F3, 5 μM, 96 h
Description: Super-enhancers consist of enhancer clusters with abundant binding of transcription factors and are highly enriched with H3K27ac marks. The H3K4me2 increased regions included the MYC locus and H3K4me2 de novo regions comprised Nestin and SOX2 loci (Fig. 2F, Supplementary Fig. S5A). These regions were also identified as super-enhancers in GSCs using data from our previous study (Fig. 2F). Compared to the large increase in H3K4me2 in these regions, changes in H3K4me3 were subtle after S2172 treatment (only 2582 regions were acquired modification) (Fig. 2C). Increasing the me2/me3 ratio at H3K4 is associated with reduced gene expression. […]
instructions. For GSC cells, the CellTiter-Glo 3D Viability Assay (Promega, Madison, WI, USA) was used to measure the living cells. All proliferation experiments were repeated […]
A. Left panel: Western blot analysis of H3K4me1, H3K4me2, H3K4me3, and H3K9me2 after treatment with either DMSO or S2172 5μM for 96 h in normal neural stem cell F3 . […] Right panel: Quantification of signal intensities of the Western blot. […]
C. […] Right panel: Quantification of band signal intensities from the Western blot.
Error bars indicate the SD; n = 3. […] The ratio was calculated by dividing the intensity of the cleaved PARP band by the full-length PARP band. […]

[2] = tested on: GSC1228 intracranial xenograft; test: Intracranial xenograft mouse model inoculated with GSC1228 cells; format: in vivo, NOD/SCID mice
Description: All experiments were performed under protocols approved by the Institutional Animal Care and Use Committee of Nagoya University of Graduate School of Medicine. Cells (1 × 10^5 cells per mouse) were injected intracranially into 6-week-old female NOD/SCID mice (n = 20, SLC, Shizuoka, Japan). Four weeks after the injection, S2172 or DMSO were intravenously injected five days a week for 3 weeks (10 mg/kg per day, 15 injections in total). We used established guidelines to determine the sample size for the mouse experiments. The mice were assigned randomly to experimental and control groups. There was no blinding applied in the experiment.
We utilized intracranial xenograft mouse models inoculated with GSC1228 cells. After 30 days of inoculation, we administered S2172 intravenously at 10 mg/kg five times a week for three weeks. […] Following treatment with S2172 for one week, mice were sacrificed, and the xenograft glioma tissues were examined. The H3K4me2 level was increased in the tumor regions treated with S2172 (P < 0.01, Fig. 4B). Consistent with the in vitro analysis, the protein levels of Nestin and SOX2 were decreased in tumor tissues (Fig. 4C).
Fig. 4 S2172 eradicates tumor cells in GSC brain tumor mouse model. A Tumor volume was assessed by MRI after treatment with either DMSO or S2172 for 15 times. Error bars represent the SD. *P < 0.05. n = 7. B H3K4me2 level in the tumor tissue from the mouse brain (left panel). Quantification of western blot band signal intensity (right panel). The y-axis in the panel indicates the relative signal intensity of each protein normalized to histone H3. […] Quantification of western blot band signal intensity (right panel). […]
The density of bands was quantified using ImageJ software (https://imagej.nih.gov/ij/). […]
When mice were scanned with MRI, mice were anesthetized with isoflurane (3% in air) and placed in MRS 3017 Benchtop MRI Systems (MR Solutions, Guildford, UK). Using MRI images, tumor volumes were obtained by compiling tumor areas from all slices that contained tumors and calculated by ImageJ software (https://imagej.nih.gov/ij/) {Towner, […]

## NC1CCC(NC2CC2c2cc(F)cc(F)c2OCc2ccccc2)CC1 (stereo not shown) [S2172]
[1]
  expression levels of stemness markers: not significantly affected
[2]; 10 mg/kg intravenously five times a week for three weeks, P < 0.05 MRI, P < 0.01 HE
  tumor area (MRI; HE-stained tissue images): significantly smaller
[2]; after one week of treatment
  protein levels of Nestin and SOX2 in tumor tissues: decreased
[2]; after one week of treatment, P < 0.01
  H3K4me2 level in tumor regions: increased

From paper PMC11645267, “Novel pharmacologic inhibition of lysine-specific demethylase 1 as a potential therapeutic for glioblastoma” (Cancer Gene Therapy, 2024)
